The source of these data is the METLIN SMRT retention time set (Domingo-Almenara et al. 2019).

The data set can be described thus: gradient 5% acetonitrile 3 min, to 50% in 2 min, to 85% in 15 min, held 3 min, 100 µL/min. As to conditions: column: Zorbax Extend-C18 2.1 x 50 mm; eluents: water / acetonitrile, 0.1% formic acid. The procedure, abridged:
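A Zorbax Extend-C18 column (2.1 × 50 mm, 1.8 μm) run at 100 μL/min with water and acetonitrile, both containing 0.1% formic acid, separated mixtures of ~100 pure standards. The HPLC was coupled to a quadrupole time-of-flight mass spectrometer operated in positive and negative ionization mode, with dead and dwell volumes of 40 μL and 900 μL. Each retention time was taken from a computationally picked adduct peak that was then manually inspected.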
Take `Cc1nn(C)c2nc(OCC(=O)N3CCCCCC3)cc(C(F)(F)F)c12`: the RP-LC retention time came out at 958 s.
For `O=C(NCCC1=CCCCC1)C1CCN(Cc2cc3ccccc3n2Cc2ccc(Cl)cc2)CC1` the value was 917 s.
Then `Cc1nc(-c2ccccc2)cc2nn(CC(=O)NCc3ccccc3)c(=O)n12`, with 873 s; and `Cc1ccc(Nc2nc(-c3ccc(I)cc3)cs2)cc1C`, with 1120 s.
For `Cc1ccccc1-c1nc(-c2ccc3nnn(C)c3c2)no1`, the RP-LC retention time was 1060 s.
`CC(=O)NCc1ccc(-c2noc(-c3cc(F)ccc3Cl)n2)s1` gave an RP-LC retention time of 879 s.
`CCc1noc2nc(C)nc(N3CCCC(C(=O)NCCN4CCCC4)C3)c12` (configuration not stated) gave an RP-LC retention time of 597 s.
For `CCc1nn2c(CNS(=O)(=O)c3ccccc3CC)c(-c3ccccc3)nc2s1` the value was 1020 s; for `CS(=O)(=O)N1CCC(CNC(=O)CCSc2ccccc2)CC1`, 692 s.
Then `CC(C)NC(=O)C1CCCN(c2nc3ncn(CC(=O)Nc4cccc(Cl)c4)c(=O)c3s2)C1` (configuration not stated), with 738 s.
Then `CCCN1C(=O)c2c(C(=O)NCc3ccc(C)cc3)ncn2CC1(C)C(=O)NC1CCCC1` (configuration not stated), with 848 s; and `Cc1cc(NC(=O)N2CCC(n3cnnc3C3CC3)C2)ccc1Br` (configuration not stated), with 692 s.
`O=C(Cc1ccccc1)N1CCN(c2nc(CN3CCOCC3)cs2)CC1` registered an RP-LC retention time of 614 s.
Turning to `COc1cc2c(cc1OC)C(C(=O)NCc1cccnc1)C(c1ccc(SC)cc1)N(C)C2=O` (configuration not stated), the RP-LC retention time came out at 630 s.
Then `COc1ccc(-c2noc(-c3ccc(NCCCN4CCC(C)CC4)nc3)n2)cc1`, with 666 s.
For `CN1CCN(CCC(=O)N2CCC(c3c[nH]c4ccccc34)(c3c[nH]c4ccccc34)CC2)CC1` the value was 625 s; for `CCN1C(=O)c2ccccc2Oc2ccc(C(=O)NCC(C)c3ccccc3)cc21` (configuration not stated), 985 s; for `CC(NC(=O)C(C)n1c2ccccc2c2cnn(C)c(=O)c21)C(=O)N1CCCCC1` (configuration not stated), 764 s.
For `CCCN1CCN(C(=O)CN2CCN(Cc3ccccc3)C2=O)CC1` the value was 578 s.
Compound `O=C(CCC[C@@H]1[C@H]2CCCN3CCC[C@@H](CN1C(=O)c1ccco1)[C@@H]23)Nc1ccccc1` gave an RP-LC retention time of 614 s.
In turn, `CCc1onc(C)c1C1CCCN1C(=O)c1c(OC)cccc1OC` (configuration not stated) registered an RP-LC retention time of 898 s.
For `CN(C)C(=O)Cc1ccc(NC(=O)Cc2ccc(-c3ccccc3)cc2)cc1` the value was 795 s.
Then `Cc1nc(Cn2cccc2C(=O)Nc2cccc(C#N)c2)no1`, with 798 s.
`CCc1ccc(-n2ncc3c(=O)n(Cc4nc(-c5ccc(F)cc5)no4)cnc32)cc1` came in with an RP-LC retention time of 1170 s.
Then `CS(=O)(=O)N1CCC(C(=O)Nc2ccc(C(F)(F)F)cc2)Oc2ccccc21` (configuration not stated), with 1030 s.
The compound `CCCN1C(=O)c2cc(S(=O)(=O)N(C)Cc3ccccc3)ccc2Oc2cccnc21` showed an RP-LC retention time of 1190 s.
Then `COc1ccc(CCC(=O)c2c(O)cc(O[C@@H]3O[C@H](CO)[C@@H](O)[C@H](O)[C@H]3O[C@@H]3O[C@@H](C)[C@H](O)[C@@H](O)[C@H]3O)cc2O)cc1O`, with 654 s; and `CCOC(=O)c1ccccc1NC(=O)C1CCCN(c2cc(-n3cccn3)ncn2)C1` (configuration not stated), with 1100 s; and `COc1ccccc1CCNC(=O)CCc1csc(NC(=O)NC2CCCCC2)n1`, with 786 s.
Then `CCNC(=O)c1sc2nc(-c3cccc(F)c3)c(NCCCOC)n2c1C`, with 844 s; and `Cc1ccccc1-c1nnc(CSc2nnc(NC(=O)c3ccccc3Br)s2)o1`, with 943 s; and `O=C(Nc1ccc2c(c1)C(=O)Nc1ccccc1O2)c1nc2ccccc2s1`, with 928 s.
For `CC1CC(C)CN(CCCNC(=O)Cn2ncc3c4ccccc4n(C)c3c2=O)C1` (configuration not stated) the value was 659 s; for `O=C(CCc1nc2ccccc2s1)NCC12CCCC=C1N(CC1CC1)C(=O)CC2` (configuration not stated), 863 s.
As to `COc1cc(OC)c(NC(=O)N2CCCC(C)(C(=O)NCc3ccc(C)cc3)C2)cc1Cl` (configuration not stated), the RP-LC retention time came to 971 s.
In turn, `CCc1nnc(-c2ccc(NC(=O)COc3ccccc3F)cc2)o1` had an RP-LC retention time of 772 s.
Compound `COc1ccc(-c2csc(C)n2)cc1S(=O)(=O)N1CCN(c2ccccc2F)CC1` returned an RP-LC retention time of 1110 s.
In turn, `Cc1cc(C)c2c(N3CCCCC3)nc(C(=O)N3CCN(C(C)C)CC3)nc2n1` displayed an RP-LC retention time of 556 s.
`O=C(NCCc1csc(-c2cccs2)n1)C1CCN(C(=O)c2cccc(F)c2)CC1` had an RP-LC retention time of 768 s.
For `Cc1cccn2c(=O)cc(CN(Cc3ccccc3)Cc3ccco3)nc12` the value was 676 s.
For `O=c1n(Cc2ccc(F)cc2Cl)nc2ccc(S(=O)(=O)N3CCCCCC3)cn12` the value was 1050 s; for `CCOC(=O)c1ccc2nc(C(F)(F)F)nc(NCc3ccc(Cl)cc3)c2c1`, 1240 s.
On to `CN(C)CC(=O)N1CCc2[nH]nc(-c3ccc(F)cc3)c2C1`, for which the RP-LC retention time turned out to be 588 s.
Then `FC1(F)CN[C@H](c2nc(-c3ccccc3)no2)C1`, with 794 s; and `CCCCOc1ccc(CNC(=O)CN2CC=C(c3cnn(-c4ccc(C)c(C)c4)c3)CC2)cc1`, with 924 s.
Compound `O=C(c1c(-c2ccccc2)nnc2ccccc12)N1CCN(c2ncccn2)CC1` displayed an RP-LC retention time of 773 s.
For `Cc1cc(C)n2c(Nc3ccc(Cl)cc3)c(-c3ccc(O)cc3)nc2n1` the value was 707 s; for `COc1ccc(OCC(=O)Nc2nc(-c3ccccc3)cs2)cc1`, 1050 s.
Consider `CCc1nc(N2CCC(C(=O)NCc3cccc(C(F)(F)F)c3)CC2)c2c(C)scc2n1`, for which the RP-LC retention time stood at 786 s.
For `COc1ccc2[nH]cc(CCNC(=O)c3cc4n(n3)CCCN(Cc3ccc(F)cc3)C4=O)c2c1` the value was 852 s.
For `O=C(NC1CCCCCC1)c1csc(-c2ccc(N3CCOCC3)nc2)n1` the value was 991 s; for `O=C(Cc1ccc(F)cc1)NCCCn1cccc1`, 746 s.
For `Cc1ccc(S(=O)(=O)N2CCc3nn(CC(C)C)c(=O)n3CC2)cc1Cl` the value was 880 s; for `O=C(NCCc1ccc(F)cc1)C(=O)Nc1cccc(N2CCCC2=O)c1`, 771 s; for `CC1CCc2nc3ncn(CC(=O)Nc4cccc(Br)c4)c(=O)c3cc2C1` (configuration not stated), 854 s.
`O=C(Cn1cccc(-c2nc(-c3ccc(F)cc3)no2)c1=O)Nc1cccc(Br)c1` yielded an RP-LC retention time of 950 s.
`CCCCn1nc2c(S(=O)(=O)N3CCOCC3)cccn2c1=O`: the RP-LC retention time is 702 s.
In turn, `O=C(Cc1csc(NC(=O)c2ccco2)n1)Nc1ccc2c(c1)OCCO2` registered an RP-LC retention time of 670 s.
`Cc1nc(-c2ccc(C(=O)NC3CC3)cc2)cs1` displayed an RP-LC retention time of 706 s.
For `O=c1ccn(-c2ccccc2)nc1-c1nc(-c2ccccn2)no1` the value was 685 s; for `CCC(=O)N1CCc2c(C(=O)N3CCN(c4cc(C)ccc4C)CC3)cccc21`, 1040 s.
For `CCCN1CCN(C(=O)c2cc3n(n2)CC(C)(C(=O)NC2CCCCCC2)N(C)C3=O)CC1` (configuration not stated), the RP-LC retention time was determined as 614 s.
Then `CCN1CCCn2cc(S(=O)(=O)Nc3cccc(OC)c3)cc2C1=O`, with 698 s; and `CCOc1ccc(C(=O)N2CCN(c3ccc(-c4nc(C)cs4)cn3)CC2)cc1`, with 884 s.
Then `CSc1ccc(CNC(=O)COc2cc(C)nc(N3CCCC3)n2)cc1`, with 648 s.
For `O=C1CCCc2c1cc(C(=O)NCCc1ccco1)c(=O)n2-c1ccc(F)cc1` the value was 834 s.
For the compound `O=C(N1CCC(NS(=O)(=O)Cc2ccccc2F)CC1)N1C[C@H]2C[C@H](C1)[C@H]1CCCC(=O)N1C2`, the RP-LC retention time was 689 s.
Then `O=C(NCCn1ncccc1=O)NCc1ccccc1`, with 578 s; and `Cc1cc2nn(CC(=O)Nc3cccc(Cl)c3)c(=O)n2c(Nc2ccccc2C)n1`, with 1100 s; and `COc1ccc(-c2noc(CN3CCC(C(=O)NC4CCCCC4)CC3)n2)cc1OC`, with 670 s.
In turn, `Cc1cccc(CNC(=O)C2(C)Cn3cnc(C(=O)NC4CC4)c3C(=O)N2C2CC2)c1` (configuration not stated) registered an RP-LC retention time of 706 s.
Then `COc1ccccc1Cc1noc(C2CN(C(=O)c3ccccc3C(F)(F)F)C2)n1`, with 873 s.
`CCc1ccc(-n2nc(N3CCCC(C(=O)NCc4cccc(F)c4)C3)ccc2=O)cc1` (configuration not stated): the RP-LC retention time is 899 s.
In turn, `Cc1ccc(NC(=O)C2CCCN2S(=O)(=O)c2ccc3c(c2)CCCC(=O)N3)cc1C` (configuration not stated) registered an RP-LC retention time of 818 s.
Then `CS(=O)(=O)N[C@H]1C[C@@H]2C[C@H]1N(C(=O)Cc1c(F)cccc1Cl)C2`, with 717 s.
Regarding `CCC(c1cccs1)N1C(=O)[C@H]2CN(S(=O)(=O)c3cccc(F)c3)C[C@H]2C1=O` (some centres not stated), the RP-LC retention time came out at 972 s.
`CCN(CC)C(=O)c1ccc2c(c1)N(CC(=O)NC1CCCCC1)C(=O)C1CCCCN21` (configuration not stated) displayed an RP-LC retention time of 838 s.
